According to paper PMC9301957 (ACS Omega, 2022):

How the values were obtained:
[1] = target: EGFR (Homo sapiens, UniProt P00533); test: EGFR protein kinase; format: biochemical; settings: mean ± SD of three replicates; for inhibition at 10 µM: read-out: autophosphorylation percentage inhibition at conc (10 μM), 10 μM
[2] = system: AKT; test: AKT ELISA, downstream signaling pathway in HCT-116 cells; format: cell-based, human; settings: compound at its IC50, untreated control 45.39 ng/mL
[3] = system: mTOR; test: mTOR ELISA, downstream signaling pathway in HCT-116 cells; format: cell-based, human; settings: compound at its IC50, untreated control 86.39 ng/mL
[4] = system: PI3K; test: PI3K ELISA, downstream signaling pathway in HCT-116 cells; format: cell-based, human; settings: compound at its IC50, untreated control 6.64 ng/mL

Sequence of EGFR (P00533 25-1210): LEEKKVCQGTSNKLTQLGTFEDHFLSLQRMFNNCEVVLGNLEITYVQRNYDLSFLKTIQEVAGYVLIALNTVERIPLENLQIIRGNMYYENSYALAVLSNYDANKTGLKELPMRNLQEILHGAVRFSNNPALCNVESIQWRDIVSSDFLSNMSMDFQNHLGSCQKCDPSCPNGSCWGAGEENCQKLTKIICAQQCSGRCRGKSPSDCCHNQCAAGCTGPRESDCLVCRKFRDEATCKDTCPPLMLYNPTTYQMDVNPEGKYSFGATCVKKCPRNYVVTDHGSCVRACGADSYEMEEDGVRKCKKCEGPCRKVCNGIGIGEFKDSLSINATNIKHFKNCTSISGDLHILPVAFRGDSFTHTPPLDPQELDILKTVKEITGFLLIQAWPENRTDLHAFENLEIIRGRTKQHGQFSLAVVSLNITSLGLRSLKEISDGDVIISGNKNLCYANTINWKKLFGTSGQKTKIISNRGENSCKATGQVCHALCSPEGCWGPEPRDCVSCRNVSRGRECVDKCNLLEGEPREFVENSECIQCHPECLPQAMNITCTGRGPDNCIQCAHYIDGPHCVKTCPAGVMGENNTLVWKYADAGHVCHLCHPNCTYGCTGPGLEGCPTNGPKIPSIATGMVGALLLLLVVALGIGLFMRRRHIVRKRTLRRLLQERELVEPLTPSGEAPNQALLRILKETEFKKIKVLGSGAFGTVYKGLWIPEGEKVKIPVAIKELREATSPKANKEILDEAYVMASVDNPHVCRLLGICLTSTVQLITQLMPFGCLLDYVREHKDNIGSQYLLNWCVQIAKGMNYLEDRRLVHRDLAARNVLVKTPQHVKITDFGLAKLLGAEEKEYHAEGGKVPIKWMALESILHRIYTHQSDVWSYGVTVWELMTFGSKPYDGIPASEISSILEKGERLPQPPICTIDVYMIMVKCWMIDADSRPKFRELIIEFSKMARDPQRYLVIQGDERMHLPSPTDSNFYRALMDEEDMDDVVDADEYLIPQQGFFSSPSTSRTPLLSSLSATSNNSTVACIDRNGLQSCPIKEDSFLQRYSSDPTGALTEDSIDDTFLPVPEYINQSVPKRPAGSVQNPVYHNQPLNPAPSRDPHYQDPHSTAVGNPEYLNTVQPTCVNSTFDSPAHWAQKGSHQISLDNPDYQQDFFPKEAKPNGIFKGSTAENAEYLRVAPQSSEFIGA

Row | autophosphorylation percentage inhibition at conc (10 μM) [1] [%] | inhibition at 10 µM [1] [%] | Structure (SMILES) | AKT concentration in treated HCT-116 cells [2] [ng/mL] | mTOR concentration in treated HCT-116 cells [3] [ng/mL] | PI3K concentration in treated HCT-116 cells [4] [ng/mL]
1 | 69.68 ± 2.01 | 70 | Cc1cc(C)n(-c2nc(Nc3ccc(Cl)cc3)nc(-n3nc(C)cc3C)n2)n1 [Compound 5c, N-(4-chlorophenyl)-4,6-bis(3,5-dimethyl-1H-pyrazol-1-yl)-1,3,5-triazin-2-amine] | – | – | –
2 | – | – | Cc1cc(C)n(-c2nc(Nc3ccc(Br)cc3)nc(N3CCOCC3)n2)n1 [Compound 4f, N-(4-Bromophenyl)-4-(3,5-dimethyl-1H-pyrazol-1-yl)-6-morpholino-1,3,5-triazin-2-amine] | 12.35 | 34.36 | 1.24
3 | 74.68 ± 2.47 | 74.7 | COc1ccc(Nc2nc(-n3nc(C)cc3C)nc(-n3nc(C)cc3C)n2)cc1 [Compound 5d, 4,6-bis(3,5-dimethyl-1H-pyrazol-1-yl)-N-(4-methoxyphenyl)-1,3,5-triazin-2-amine] | – | – | –
